Results published in patent US20190119196A1, “COMPOUNDS FOR THE TREATMENT OF […]” (priority 2016, published 2019).
Where a name gives a salt, the structure may show the parent alone. Read-outs that look alike come from different tables or passages of the source.

Assays:
[1] = biological target: T1, human β2-adrenoceptor (Homo sapiens, UniProt P07550); experiment: 3H-CGP 12177 whole cell β2 binding
T1 construct: expressed in transfected cells
Protocol: ^3H-CGP 12177 Whole Cell β2 Binding
Chinese Hamster Ovary (CHO) cells stably expressing the human β2-adrenoceptor were grown in Dulbecco's modified Eagle's medium nutrient mix F12 (DMEM/F12) containing 10% fetal calf serum and 2 mM L-glutamine in a 37° C. humidified 5% CO2:95% air atmosphere. The cells were seeded (100 000 cells/mL) into white-sided, clear-bottomed 96-well isoplates and allowed to grow to confluence for the following day's experiment. Next day, the media was removed from each well of the isoplate. Aliquots of the test compounds (10^−2 M in DMSO) were diluted in DMEM/F12 containing 2 mM L-glutamine (serum-free media) to final concentration ranges of 10^−4 M to 10^−10 M and added to each well. The radioligand ^3H-CGP 12177 was diluted in the same medium (˜1 nM final well concentration) and added to each well. Propranolol and CGP 12177 (10 μM) were used to measure non-specific binding. The cells were incubated for 2 hours at 37° C. After incubation, the cells were washed twice by the addition and removal of 200 μL ice-cold phosphate-buffered saline (PBS). Cells were then lysed with Optiphase Supermix cocktail (100 μL/well) and a clear sealant top was applied to the plate. The plate was left overnight in the dark at room temperature, centrifuged (1000 rpm, 1 min) and measured in a MicroBeta2 Microplate Counter (Perkin Elmer) (10 minutes pre-incubation, 2 min counts/well).
All data points on each binding curve were measured in duplicates. Each 96-well plate also contained four determinations of total and non-specific binding. Non-specific binding was determined in the presence of CGP 12177 and propranolol (10 μM). […] All data points are measured in counts per minute (CPM) and converted into disintegrations per minute (DPM) by dividing the count rate (CPM) with the counting efficiency of the instruments detector (57%). The numerical values were obtained by using the GraphPad Prism 7 programme and are given as -log K (pKi) in the table.

[2] = system: L6-myotubes; experiment: Measurement of intracellular cAMP levels (alpha screen cAMP kit); assay type: cell-based; conditions: agonist final concentration 1×10^−5, 15 min; differentiated cells; 1 mM IBMX
Protocol: (§1) L6-myoblasts were grown in Dulbecco's Modified Eagle's Medium (DMEM) containing 4,5 g/I glucose supplemented with 10% fetal bovine serum, 2 mM L-Glutamine, 50 U/ml penicillin, 50 μg/ml streptomycin and 10 mM HEPES. Cells were plated at 1×10^5 cells per ml in 24-well plates. After reaching 90% confluence the cells were grown in medium containing 2% FBS for 7 days where upon cells differentited into myotubes.
Differentiated cells were serum-starved over night and stimulated with agonist, final concentration 1×10−^5, for 15 min in stimulation buffer (HBSS supplemented with 1% BSA, 5 mM HEPES and 1 mM IBMX, pH 7,4) The medium was then aspirated and to end the reaction 100 μL of 95% EtOH was added to each well of a 24-well plate and cells were kept in −20° C. over night. The EtOH was let to evaporate and 500 μL of lysis buffer (1% BSA, 5 mM HEPES and 0,3% Tween-20, pH 7.4) was added to each well before put in −80° C. for 30 min and then kept in −20° C. Intracellular cAMP levels were detected using an alpha screen cAMP kit (6760635D from Perkin Elmer). The numerical values in the table are given as % increase over the basal level.

[3] = system: L6-myotubes; experiment: Glucose uptake in differentiated L6-myotubes (3H-2-deoxy-glucose); assay type: cell-based; conditions: read-out: Biological example 1: glucose uptake, % increase over the basal level
Protocol: as §1
Differentiated L6-myotubes were serum-starved over night in medium containing 0.5% fatty-acid free BSA and stimulated with agonist, […], glucose free medium or PBS and another portion of agonist was added to glucose free medium. […] Cell lysate was mixed with scintillation buffer (Emulsifier Safe, Perkin Elmer and radioactivity detected in a β-counter (Tri-Carb 2800TR, Perkin Elmer). The numerical values in the table are given as % increase over the basal level.

[4] = CHO cells stably expressing the human β2-adrenoceptor, ~1 nM 3H-CGP 12177, 2 hours at 37° C., read-out: Biological example 3: -log K (pKi), 3H-CGP 12177 whole cell β2 binding (converted)
[5] = agonist final concentration 1×10^−5, differentiated L6-myotubes, 50 nM 3H-2-deoxy-glucose

T1 sequence (P07550 whole entry): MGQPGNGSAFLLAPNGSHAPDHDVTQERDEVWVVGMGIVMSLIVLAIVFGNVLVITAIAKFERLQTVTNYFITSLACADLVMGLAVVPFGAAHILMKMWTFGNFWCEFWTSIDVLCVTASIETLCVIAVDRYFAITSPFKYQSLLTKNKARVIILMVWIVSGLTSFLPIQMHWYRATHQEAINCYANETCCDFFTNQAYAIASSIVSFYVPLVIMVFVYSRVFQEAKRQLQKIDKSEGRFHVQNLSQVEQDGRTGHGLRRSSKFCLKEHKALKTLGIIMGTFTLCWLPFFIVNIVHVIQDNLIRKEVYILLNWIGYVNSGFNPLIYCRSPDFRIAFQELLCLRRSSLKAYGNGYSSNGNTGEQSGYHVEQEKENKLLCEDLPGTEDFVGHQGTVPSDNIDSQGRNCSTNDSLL

Row | Structure (SMILES) | Ki [1, 4] | Biological example 2: intracellular cAMP levels, % increase over the basal level [2] | activation [3, 5] | Ki [1] | activation [3]
1 | CCCCCCNCC(O)c1ccc(O)cc1 (stereo not shown) [Example 17, 4-(2-(Hexylamino)-1-hydroxyethyl)phenol acetate] | 6.31 µM | 70% | 26% |  | 
2 | CCCCNCC(O)c1cc(O)cc(O)c1 (stereo not shown) [Example 25, 5-(2-(Butylamino)-1-hydroxyethyl)benzene-1,3-diol hemisulphate] | 39.8 µM | 115% | 32% |  | 
3 | CCCCNCC(O)c1cccc(Cl)c1 (stereo not shown) [Example 2, 2-(Butylamino)-1-(3-chlorophenyl)ethan-1-ol] | 6.31 µM | 3% | 27% |  | 
4 | CCCC(C)NCC(O)c1cc(Cl)c(N)c(Cl)c1 (mixture of isomers) [Example 28, 1-(4-Amino-3,5-dichlorophenyl)-2-(pentan-2-ylamino)ethan-1-ol trifluoroacetate] |  | 2% |  | 0.398 µM | 39%
5 | Oc1ccc(C(O)CNCCCC2CC2)cc1 (stereo not shown) [Example 23, 4-(2-((3-Cyclopropylpropyl)amino)-1-hydroxyethyl)phenol acetate] | 7.94 µM |  | 28% |  | 
6 | Oc1ccc(C(O)CNC23CC4CC(CC(C4)C2)C3)cc1 (stereo not shown) [Example 9, 4-(2-(adamantan-1-ylamino)-1-hydroxyethyl)phenol hemisulfate] | 50.1 µM | 4% | 18% |  | 
7 | Oc1ccc(C(O)CNCCC2CCCCC2)cc1 (stereo not shown) [Example 16, 4-(2-((2-Cyclohexylethyl)amino)-1-hydroxyethyl)phenol acetate] | 5.01 µM | −56% | 23% |  | 
8 | CCCCNCC(O)c1ccc(Cl)c(O)c1 (stereo not shown) [Example 32, 5-(2-(Butylamino)-1-hydroxyethyl)-2-chlorophenol] | 6.31 µM | 371% | 53% |  | 
9 | OC(CNCC1CCCCC1)c1ccccc1 (stereo not shown) [Example 10, 2-((cyclohexylmethyl)amino)-1-phenylethan-1-ol] | 25.1 µM | 5% | 39% |  | 
10 | CC(C)(C)NCC(O)c1ccc(O)cc1 (stereo not shown) [Example 4, 4-(2-(tert-Butylamino)-1-hydroxyethyl)phenol] | 1 µM | 40% |  |  | 62%
11 | Oc1ccc(C(O)CNCCCC2CCCCC2)cc1 (stereo not shown) [Example 21, 4-(2-((3-Cyclohexylpropyl)amino)-1-hydroxyethyl)phenol] | 2 µM | −16% | 37% |  | 
12 | CCCCNCC(O)c1cc(Cl)c(N)c(C(F)(F)F)c1 (stereo not shown) [Example 30, 1-(4-Amino-3-chloro-5-(trifluoromethyl)phenyl)-2-(butylamino)ethan-1-ol] |  | 231% | 50% | 0.0794 µM | 
13 | CCCCNC(C)C(O)c1ccc(O)cc1 (stereo not shown) [Example 12, 4-(2-(Butylamino)-1-hydroxypropyl)phenol acetate] | 7.94 µM | 190% | 40% |  | 
14 | CCCC(C)NCC(O)c1cccc(O)c1 (mixture of isomers) [Example 15, 3-(1-Hydroxy-2-(pentan-2-ylamino)ethyl)phenol] | 0.794 µM | 20% | 31% |  | 
15 | Oc1ccc(C(O)CNC2CCCC2)cc1 (stereo not shown) [Example 7, 4-(2-(cyclopentylamino)-1-hydroxyethyl)phenol acetate] | 5.01 µM | 1% | 23% |  | 
16 | CCCCNCC(O)c1cc(F)c(N)c(F)c1 (stereo not shown) [Example 35, 1-(4-Amino-3,5-difluorophenyl)-2-(butylamino)ethan-1-ol] | 3.98 µM | 6536% | 65% |  | 
17 | CCCCCCCCNCC(O)c1ccc(O)cc1 (stereo not shown) [Example 18, 4-(1-Hydroxy-2-(octylamino)ethyl)phenol acetate] | 6.31 µM | −23% | 26% |  | 
18 | CCCC(C)NCC(O)c1cc(Cl)c(N)c(C(F)(F)F)c1 (mixture of isomers) [Example 31, 1-(4-amino-3-chloro-5-(trifluoromethyl)phenyl)-2-(pentan-2-ylamino)ethan-1-ol] |  | 439% | 36% | 0.0316 µM | 
19 | CCCCNC[C@H](O)c1ccc(O)cc1 [Example 11, (R)-4-(2-(Butylamino)-1-hydroxyethyl)phenol hemisulfate] | 39.8 µM | 10% | 50% |  | 
20 | Oc1ccc(C(O)CNCC2CC2)cc1 (stereo not shown) [Example 3, 4-(2-((Cyclopropylmethyl)amino)-1-hydroxyethyl)phenol] | 25.1 µM | 18% | 86% |  | 
21 | CCCCNCC(O)c1ccc(Cl)c(N)c1 (stereo not shown) [Example 34, 1-(3-Amino-4-chlorophenyl)-2-(butylamino)ethan-1-ol] | 3.16 µM | 0% | 20% |  | 
22 | CCCC(C)NCC(O)c1cc(Cl)c(O)c(Cl)c1 (mixture of isomers) [Example 27, 2,6-Dichloro-4-(1-hydroxy-2-(pentan-2-ylamino)ethyl)phenol] | 1.26 µM | 86% | 6% |  | 
23 | CCCCNCC(O)c1ccc(O)cc1 (stereo not shown) [Example 1, 4-(2-(Butylamino)-1-hydroxyethyl)phenol] | 25.1 µM | 1% | 50% |  | 
24 | CCCC(C)NCC(O)c1ccc(O)c(Cl)c1 (mixture of isomers) [Example 19, 2-Chloro-4-(1-hydroxy-2-(pentan-2-ylamino)ethyl)phenol] | 0.501 µM | −52% | 30% |  | 
25 | CCCC(C)NCC(O)c1ccc(Cl)c(O)c1 (mixture of isomers) [Example 33, 2-Chloro-5-(1-hydroxy-2-(pentan-2-ylamino)ethyl)phenol] | 1 µM | 1191% | 55% |  | 
26 | CCCCNCC(O)c1ccc(O)c(Cl)c1 (stereo not shown) [Example 20, 4-(2-(Butylamino)-1-hydroxyethyl)-2-chlorophenol] | 3.16 µM | −19% | 12% |  | 
27 | CCC(C)NCC(O)c1ccc(O)cc1 (stereo not shown) [Example 5, 4-(2-(sec-Butylamino)-1-hydroxyethyl)phenol] | 5.01 µM | 18% | 39% |  | 
28 | Oc1ccc(C(O)CNCCCC(F)(F)F)cc1 (stereo not shown) [Example 24, 4-(1-Hydroxy-2-((4,4,4-trifluorobutyl)amino)ethyl)phenol acetate] | 10 µM |  | 22% |  | 
